Data set [1] concerns FIPV. Put plainly: Inhibitory activity against FIPV in cell culture (Table 1). The data set is classed as cell-based. Particulars: Alphacoronavirus 1, cell culture.
Data set [2] has as its system SARS-CoV-2. Put plainly: Cell-based assay for antiviral activity, plaque reduction in Vero E6 cells. As to conditions: mean ± standard deviation.
Data set [3] is described as follows: Nonspecific cytotoxic effects (CytoTox 96 assay). As to conditions: African green monkey (Vero E6) and cat (CRFK); Vero E6 and CRFK cells, 72 hr. The data set is classed as cell-based. The method, then:
(§1) Nonspecific cytotoxic effects. […] Confluent cells grown in 96-well plates were incubated with various concentrations (1 to 100 μM) of each compound for 72 hr. Cell cytotoxicity was measured by a CytoTox 96 nonradioactive cytotoxicity assay kit (Promega, Madison, WI), and the CC50 values were calculated using a variable slope by GraphPad Prism software (Table 2).

Data set [4] deals with SARS-CoV-2. Put plainly: Cell-based assay for antiviral activity in A549-ACE2 cells. As to conditions: Severe acute respiratory syndrome coronavirus 2, mean ± standard deviation.
For data set [5], the system named is SARS-CoV-2. The data set is classed as in vivo, K18-hACE2 mice. As to conditions: for lung edema average score: score 0-4.
Data set [6] concerns the target SARS-CoV-2 3CLpro (Severe acute respiratory syndrome coronavirus 2 (2019-nCoV) (SARS-CoV-2), UniProt P0DTD1). Kind of data set: biochemical. The data set is classed as biochemical.
Data set [7] relates to Vero E6 and CRFK cells. Put plainly: Nonspecific cytotoxic effects (CytoTox 96 assay). Type of data set: cell-based. The method, then: as §1
Data set [8] deals with SARS-CoV-2. As to conditions: cited from earlier work.
Data set [9] deals with SARS-CoV2 (enzyme) (Severe acute respiratory syndrome coronavirus 2 (2019-nCoV) (SARS-CoV-2), UniProt P0DTD1). Kind of data set: Inhibitory activity against SARS-CoV2 enzyme (Table 1). Type of data set: biochemical.
Where [10] appears, read: Severe acute respiratory syndrome coronavirus 2, Vero C1008, read-out: EC50 (μM) VeroE6, VeroE6 cells.
Where [11] appears, read: read-out: EC50 (μM) VeroE6, VeroE6 cells.

The structures appear in SMILES notation. Where two headings read alike, the source gives them in different places.

Usually EC50 stands for the concentration that produces a half-maximal response. In data set [1], `[2H]c1c([2H])c([2H])c(C([2H])([2H])OC(=O)N[C@@H](CC(C)C)C(=O)N[C@@H](C[C@@H]2CCNC2=O)C(O)S(=O)(=O)[O-])c([2H])c1[2H].[Na+]` (stereo in doubt) [Deuterated GC376-No1] had an EC50 of 0.08 µM.
One may read the CC50 as the concentration giving 50% cytotoxicity. Turning to `[2H]C([2H])(OC(=O)N[C@@H](CC(C)C)C(=O)N[C@H](C=O)C[C@@H]1CCNC1=O)c1ccccc1` [Compound 1, Phenylmethyl-d2 ((S)-4-methyl-1-oxo-1-(((S)-1-oxo-3-((S)-2-oxopyrrolidin-3-yl)propan-2-yl)amino)pentan-2-yl)carbamate], the figures for the EC50 in [2] (setting [10]), in data set [2] (setting [11]) and in data set [4] were 0.068 to 0.086 µM, 0.068 ± 0.01 µM and 0.086 ± 0.01 µM, respectively. The CC50 at 72 h in [3] was over 100000 nM.
With `[2H]C([2H])(OC(=O)N[C@@H](CC(C)C)C(=O)N[C@@H](C[C@@H]1CCNC1=O)C(O)S(=O)(=O)[O-])c1ccccc1.[Na+]` (stereo partly drawn) [Compound 2, Sodium (2S)-1-hydroxy-2-((S)-4-methyl-2-(((phenylmethoxy-d2)carbonyl)amino)pentan-amido)-3-((S)-2-oxopyrrolidin-3-yl)propane-1-sulfonate], the EC50 in [2] (setting [10]) is 0.068 to 0.086 µM; in data set [2] (setting [11]), 0.086 ± 0.02 µM; in data set [4], 0.069 ± 0.01 µM. The “pathological changes and infectious virus in the brains” value in data set [5] (2 and 5 dpi, detection limit 200 PFU/g) is listed as “neither pathological changes nor infectious virus was detected”. For the same molecule, the lung perivascular infiltrates entry in data set [5] (2 dpi) was “Mild perivascular infiltrates”. Besides, the “lung edema average score” value was found to be 0 in data set [5] (2 dpi) and 2 in data set [5] (5 dpi). Further, in data set [5] (2 dpi, second experiment), the “lung virus titers versus vehicle” value is “statistically significant reduction of virus titers”. Further, the survival entry in data set [5] (first experiment: 2×10^3 pfu per mouse, 100 mg/kg/day once a day from 1 dpi, 15 dpi) is “All compound 2-treated mice gradually gained body weight and were alive at the end of the study”. In addition, the body weight loss entry in data set [5] (first experiment: 2×10^3 pfu per mouse, 100 mg/kg/day, 5-10 dpi, versus vehicle) is on record as “loss was less severe compared to vehicle-treated mice”. The “lung perivascular infiltrations average score” value in data set [5] (mouse, in vivo) is reported as 2. Besides, the CC50 at 72 h in data set [3] was over 100000 nM.
By IC50 is commonly meant the midpoint of a concentration-inhibition curve. As to `[2H]C([2H])(OC(=O)N[C@@H](CC(C)C)C(=O)N[C@@H](C[C@@H]1CCNC1=O)C(OC(C)=O)S(=O)(=O)[O-])c1ccccc1.[Na+]` (stereo partly drawn) [Compound 3, Sodium (5S,8S)-5-isobutyl-3,6,11-trioxo-8-(((S)-2-oxopyrrolidin-3-yl)methyl)-1-phenyl-2,10-dioxa-4,7-diazadodecane-9-sulfonate-1,1-d2], in [6], half-maximal inhibition (IC50) required 710 ± 60 nM; the “potency (IC50) in the enzyme assay compared to aldehyde and bisulfite counterparts” value was “significantly increased IC50 values”. In data set [3], this molecule returned a CC50 at 72 h of over 100000 nM.
Turning to `[2H]C([2H])(OC(=O)N[C@@H](CC(C)C)C(=O)N[C@@H](C[C@@H]1CCNC1=O)C(OC(=O)CCCCC)S(=O)(=O)[O-])c1ccccc1.[Na+]` (stereo partly drawn) [Compound 4, Sodium (5S,8S)-5-isobutyl-3,6,11-trioxo-8-(((S)-2-oxopyrrolidin-3-yl)methyl)-1-phenyl-2,10-dioxa-4,7-diazahexadecane-9-sulfonate-1,1-d2], in data set [6], inhibition was half-maximal at 800 ± 100 nM (IC50); the “potency (IC50) in the enzyme assay compared to aldehyde and bisulfite counterparts” value was “significantly increased IC50 values”. The molecule further displayed a CC50 at 72 h in [3] of over 100000 nM.
In the same order, the values of `[2H]C([2H])(OC(=O)N[C@@H](CC(C)C)C(=O)N[C@@H](C[C@@H]1CCNC1=O)C(=O)C(=O)NCc1ccccc1)c1ccccc1` [Compound 5, Phenylmethyl-d2 ((S)-1-(((S)-4-(benzylamino)-3,4-dioxo-1-((S)-2-oxopyrrolidin-3-yl)butan-2-yl)amino)-4-methyl-1-oxopentan-2-yl)carbamate] are 1310 ± 550 nM, “markedly decreased potency” and over 100000 nM.
On to `[2H]c1c([2H])c([2H])c(COC(=O)N[C@@H](CC(C)C)C(=O)N[C@H](C=O)C[C@@H]2CCNC2=O)c([2H])c1[2H]` [Compound 6, (Phenyl-d5)methyl ((S)-4-methyl-1-oxo-1-(((S)-1-oxo-3-((S)-2-oxopyrrolidin-3-yl)propan-2-yl)amino)pentan-2-yl)carbamate], for which the figures for the EC50 in [2] (setting [10]), in data set [2] (setting [11]) and in data set [4] were 0.068 to 0.086 µM, 0.077 ± 0.01 µM and 0.075 ± 0.01 µM, respectively. Further, the CC50 at 72 h in [3] is over 100000 nM.
For `[2H]c1c([2H])c([2H])c(COC(=O)N[C@@H](CC(C)C)C(=O)N[C@@H](C[C@@H]2CCNC2=O)C(O)S(=O)(=O)[O-])c([2H])c1[2H].[Na+]` (stereo partly drawn) [Compound 7, Sodium (2S)-1-hydroxy-2-((S)-4-methyl-2-((((phenyl-d5)methoxy)carbonyl)amino)pentanamido)-3-((S)-2-oxopyrrolidin-3-yl)propane-1-sulfonate] the same measures were 0.068 to 0.086 µM, 0.079 ± 0.01 µM, 0.1 ± 0.01 µM and over 100000 nM.
`[2H]c1c([2H])c([2H])c(COC(=O)N[C@@H](CC(C)C)C(=O)N[C@@H](C[C@@H]2CCNC2=O)C(OC(=O)CCCCC)S(=O)(=O)[O-])c([2H])c1[2H].[Na+]` (stereo partly drawn) [Compound 8, Sodium (5S,8S)-5-isobutyl-3,6,11-trioxo-8-(((S)-2-oxopyrrolidin-3-yl)methyl)-1-(phenyl-d5)-2,10-dioxa-4,7-diazahexadecane-9-sulfonate]: in data set [6], half-maximal inhibition (IC50) was put at 680 ± 350 nM; the “potency (IC50) in the enzyme assay compared to aldehyde and bisulfite counterparts” value is reported as “significantly increased IC50 values”. In addition, in [3], the CC50 at 72 h was over 100000 nM.
In [3], `[2H]c1c([2H])c([2H])c(C([2H])([2H])OC(=O)N[C@@H](CC(C)C)C(=O)N[C@H](C=O)C[C@@H]2CCNC2=O)c([2H])c1[2H]` [Compound 9, (Phenyl-d5)methyl-d2 ((S)-4-methyl-1-oxo-1-(((S)-1-oxo-3-((S)-2-oxopyrrolidin-3-yl)propan-2-yl)amino)pentan-2-yl)carbamate] yielded a CC50 at 72 h of over 100000 nM.
As for `CC(C)C[C@H](NC(=O)OCc1ccccc1)C(=O)N[C@@H](C[C@@H]1CCNC1=O)C(O)S(=O)(=O)O` (stereo partly drawn) [Compound 10, Sodium(2S)-1-hydroxy-2-((S)-4-methyl-2-((((phenyl-d5)methoxy-d2)carbonyl)amino)pentanamido)-3-((S)-2-oxopyrrolidin-3-yl)propane-1-sulfonate], the CC50 in data set [7] (Vero E6 and CRFK cells, 72 hr) was over 100000 nM.
As to `[2H]c1c([2H])c([2H])c(C([2H])([2H])OC(=O)N[C@@H](CC(C)C)C(=O)N[C@@H](C[C@@H]2CCNC2=O)C(OC(=O)CCCCC)S(=O)(=O)[O-])c([2H])c1[2H].[Na+]` (stereo partly drawn) [Compound 11, Sodium (5S,8S)-5-isobutyl-3,6,11-trioxo-8-(((S)-2-oxopyrrolidin-3-yl)methyl)-1-(phenyl-d5)-2,10-dioxa-4,7-diazahexadecane-9-sulfonate-1,1-d2], in [6], 770 ± 120 nM corresponded to half-maximal inhibition (IC50); the “potency (IC50) in the enzyme assay compared to aldehyde and bisulfite counterparts” value is reported as “significantly increased IC50 values”. The molecule further showed a CC50 at 72 h in data set [3] of over 100000 nM.
As for `[2H]c1c([2H])c([2H])c(C([2H])([2H])OC(=O)N[C@@H](CC(C)C)C(=O)N[C@H](C=O)C[C@@H]2CCNC2=O)c([2H])c1[2H]` [Deuterated GC373-No1], a half-maximal effect in data set [1] (EC50) was put at 0.05 µM.
On the same count and under the same terms, under `[2H]C([2H])(OC(=O)N[C@@H](CC(C)C)C(=O)N[C@H](C=O)C[C@@H]1CCNC1=O)c1ccccc1` [Deuterated GC373-No2] stands 0.05 µM.
Regarding `CC(C)C[C@H](NC(=O)OCc1ccccc1)C(=O)N[C@@H](C[C@@H]1CCNC1=O)C(O)S(=O)(=O)[O-].[Na+]` (stereo partly drawn) [GC376, reference compound], the concentration giving a half-maximal response (EC50) in [1] was 0.05 µM; in data set [2] (setting [10]), 0.23 ± 0.01 µM. For the same molecule, the cytotoxicity result in data set [7] (up to 100 μM) is on record as “did not show any cytotoxicity”. Also, the survival result in data set [8] (given three hours after virus inoculation that led to 100% fatality, versus vehicle) is given as “no difference in survival”. Further, the “viral load and inflammation in the lungs” value in data set [8] (given three hours after virus inoculation, versus vehicle-treated controls) is “reduced viral load and inflammation”.
`CC(C)C[C@H](NC(=O)OCc1ccccc1)C(=O)N[C@H](C=O)C[C@@H]1CCNC1=O` [Parental aldehyde, reference compound] returned an EC50 in data set [1] of 0.05 µM.
`[2H]C([2H])(OC(=O)N[C@@H](CC(C)C)C(=O)N[C@@H](C[C@@H]1CCNC1=O)C(OC(C)=O)S(=O)(=O)[O-])c1ccccc1.[Na+]` (stereo partly drawn) [Prodrug of GC1129-No1]: the EC50 in data set [1] came to 0.06 µM; in data set [9] it was 0.7 µM.
For `[2H]C([2H])(OC(=O)N[C@@H](CC(C)C)C(=O)N[C@@H](C[C@@H]1CCNC1=O)C(OC(=O)CCCCC)S(=O)(=O)[O-])c1ccccc1.[Na+]` (stereo partly drawn) [Prodrug of GC1129-No2], the values for the EC50 in data set [1] and in data set [9] were 0.06 µM and 0.8 µM, respectively.
